Where two headings read alike, the source gives them in different places.
How the values were obtained:
[1] = tested on: monoclonal antibody XIIIE82 /H8; assay: Binding of radioactive Ca2+ channel blockers to monoclonal antibody XIIIE82 /H8-Sepharose 6MB beads; design: species or system mouse; details: for ability to bind to monoclonal antibody XIIIE82 /H8-Sepharose 6MB beads (in words): 1.0 nM concentration; for CPM Bound / fmoles of Ca2+ channel blocker specifically bound per μg of monoclonal antibody XIIIE82 /H8: [3H]calcium channel blocker 1.0 nM
Description: Various radioactive Ca^2+ channel blockers at a 1.0 nM concentration were tested for their ability to bind to monoclonal antibody XIIIE82 /H8-Sepharose 6MB beads.

[2] = tested on: monoclonal antibody XIIIE82 /H8; assay: Nifedipine radioimmunoassay using monoclonal antibody XIIIE82 /H8-Sepharose 6MB beads; details: 100 pM [3H]nitrendipine
[3] = tested on: 1,4-dihydropyridine-specific antibodies; assay: 1,4-Dihydropyridine radioimmunoassay (dextran-coated charcoal separation), nitrendipine standard curve; format: binding; details: 20 pM [3H]nitrendipine; for % B/Bo: 60 min
Description: After a 1 hour incubation in the dark at room temperature, the assay tubes were transferred to an ice water bath for 10 min. […] After an additional 12 minutes in the ice bath, the assay tubes were centrifuged for 15 minutes at 850×g in a Beckman TJ-6 centrifuge. A 0.80 ml sample of the clear supernatant was then added to 10 ml of liquid scintillation fluid and counted in a Beckman LS8100 liquid scintillation counter. […] An alternate procedure for the RIA on human plasma samples involves the dilutions of standards in normal pooled human plasma (rather than in bovine serum albumin in saline, as described above) and the use of 0.2 ml aliquots of standard or human plasma samples.

[4] = tested on: monoclonal antibody XH42 /G1
[5] = target: XH42 /Gl monoclonal antibody; assay: Competitive binding assay according to the method of Muller, XH42 /Gl; design: species or system mouse; details: [3H]nitrendipine-XH42 /Gl monoclonal antibody complex; read-out: average apparent dissociation constant (kd)
Description: (§1) The affinity of the monoclonal antibodies of the present invention for [^3 H]nitrendipine was determined using a competitive binding assay according to the method of Muller (Muller, R., Methods in Enzylmology, 92, 589-601, 1983).

[6] = target: XIIIE82 /H8-monoclonal antibody; assay: Competitive binding assay according to the method of Muller, XIIIE82 /H8; design: species or system mouse; details: [3H]nitrendipine-XIIIE82 /H8-monoclonal antibody complex; read-out: average apparent dissociation constant (Kd)
Description: as §1

[7] = tested on: polyclonal antibodies prepared against the immunogen conjugates; assay: Cross-reactivity with polyclonal antibodies prepared against the immunogen conjugates; format: binding
[8] = tested on: New Zealand white rabbits; details: immunized rabbits
Description: In order to raise antibodies against the 1,4-hydropyridines, a bovine serum albumin-nifedipine iothiocyanate immunogen conjugate was used directly for immunization or was cross-linked with 0.04% glutaraldehyde for eight hours at room temperature prior to immunization of rabbits. In either case, the immunogen conjugate was emulsified in an equal volume of Freund's complete adjuvant.
New Zealand white rabbits were bled to obtain pre-immune sera and were then immunized intramuscularly and intradermally at multiple sites along the back and legs. Rabbits received 0.5 milligram (mg) of bovine serum albumin-nifedipine isothiocyanate immunogen conjugate in Freund's complete adjuvant on day 0 followed by 0.5 mg insults in Freund's incomplete adjuvant every 2-3 weeks. Rabbits were bled after their third immunization every two weeks. Blood was withdrawn from the ear vein, allowed to clot overnight at 4° C., and serum was isolated by centrifugation. In order to reduce the antibodies produced to bovine serum albumin, subsequent immunizations were carried out with keyhole limpet hemocyanin-nifedipine isothiocyanate immunogen conjugates. […]

[9] = nifedipine standard 3.7 nanograms/ml in final assay mixture
[10] = nifedipine standard 11.2 nanograms/ml
[11] = nifedipine standard 18.7 nanograms/ml
[12] = nifedipine standard 37.3 nanograms/ml
[13] = nifedipine standard 112.0 nanograms/ml
[14] = nifedipine standard 186.7 nanograms/ml
[15] = nifedipine standard 373.4 nanograms/ml
[16] = nifedipine standard 1866.8 nanograms/ml
[17] = nitrendipine standard 18.0 picograms/ml in final assay mixture
[18] = nitrendipine standard 36.0 picograms/ml
[19] = nitrendipine standard 72.0 picograms/ml
[20] = nitrendipine standard 180.0 picograms/ml
[21] = nitrendipine standard 360.0 picograms/ml
[22] = nitrendipine standard 720.0 picograms/ml
[23] = nitrendipine standard 1800.0 picograms/ml
[24] = nitrendipine standard 0.4 nanograms/ml in final assay mixture
[25] = nitrendipine standard 1.1 nanograms/ml
[26] = nitrendipine standard 1.8 nanograms/ml
[27] = nitrendipine standard 3.7 nanograms/ml
[28] = nitrendipine standard 11.0 nanograms/ml
[29] = nitrendipine standard 18.3 nanograms/ml
[30] = nitrendipine standard 37.4 nanograms/ml

COC(=O)C1=C(C)NC(C)=C(C(=O)OC(C)C)C1c1cccc2nonc12 (single isomer, unassigned) [[^3 H]PN200-110]
ability to bind to monoclonal antibody XIIIE82 /H8-Sepharose 6MB beads (in words) [1]: specifically bind | CPM Bound [1]: 9419 CPM | fmoles of Ca2+ channel blocker specifically bound per μg of monoclonal antibody XIIIE82 /H8 [1]: 4.8 fmol/µg

COC(=O)C1=C(C)NC(C)=C(C(=O)OC)C1c1ccccc1[N+](=O)[O-] [Nifedipine]
% B/Bo [2, 9]: 102.0% | Net CPM [2, 9]: 8010 CPM | % B/Bo [2, 10]: 98.2% | Net CPM [2, 10]: 7708 CPM | % B/Bo [2, 11]: 76.7% | Net CPM [2, 11]: 6027 CPM | % B/Bo [2, 12]: 50.9% | Net CPM [2, 12]: 3998 CPM | % B/Bo [2, 13]: 23.4% | Net CPM [2, 13]: 1837 CPM | % B/Bo [2, 14]: 14.5% | Net CPM [2, 14]: 1138 CPM | % B/Bo [2, 15]: 8.6% | Net CPM [2, 15]: 677 CPM | % B/Bo [2, 16]: 2.4% | Net CPM [2, 16]: 190 CPM

CCOC(=O)C1=C(C)NC(C)=C(C(=O)OC)C1c1cccc([N+](=O)[O-])c1 (centres unmarked) [Nitrendipine, 2,6-dimethyl-3-carboethoxy-5-carbomethoxy-4-(3-nitrophenyl)-1,4-dihydropyridine]
Net CPM [3, 17]: 1492 CPM | % B/Bo [3, 17]: 85.4% | Net CPM [3, 18]: 1406 CPM | % B/Bo [3, 18]: 80.5% | Net CPM [3, 19]: 1024 CPM | % B/Bo [3, 19]: 58.6% | Net CPM [3, 20]: 673 CPM | % B/Bo [3, 20]: 38.5% | Net CPM [3, 21]: 482 CPM | % B/Bo [3, 21]: 27.6% | Net CPM [3, 22]: 346 CPM | % B/Bo [3, 22]: 19.8% | Net CPM [3, 23]: 225 CPM | % B/Bo [3, 23]: 12.9% | % B/Bo [4, 24]: 107.1% | Net CPM [4, 24]: 2043 CPM | % B/Bo [4, 25]: 87.8% | Net CPM [4, 25]: 1676 CPM | % B/Bo [4, 26]: 76.3% | Net CPM [4, 26]: 1456 CPM | % B/Bo [4, 27]: 60.2% | Net CPM [4, 27]: 1149 CPM | % B/Bo [4, 28]: 37.6% | Net CPM [4, 28]: 717 CPM | % B/Bo [4, 29]: 28.1% | Net CPM [4, 29]: 535 CPM | % B/Bo [4, 30]: 17.5% | Net CPM [4, 30]: 333 CPM

COc1ccc([C@@H]2Sc3ccccc3N(CCN(C)C)C(=O)[C@@H]2OC(C)=O)cc1 [[^3 H]Diltiazem]
ability to bind to monoclonal antibody XIIIE82 /H8-Sepharose 6MB beads (in words) [1]: did not bind | CPM Bound [1]: 225 CPM | fmoles of Ca2+ channel blocker specifically bound per μg of monoclonal antibody XIIIE82 /H8 [1]: 0.1 fmol/µg

COC(=O)C1=C(C)NC(C)=C(C(=O)OC)C1c1ccccc1N=C=S [[^3 H]Nifedipine-Analog, 1,4-dihydro-2,6-dimethyl-4-(2-isothiocyanatophenyl)-3,5-pyridinedicarboxylic acid dimethyl ester]
ability to bind to monoclonal antibody XIIIE82 /H8-Sepharose 6MB beads (in words) [1]: specifically bind | CPM Bound [1]: 26000 CPM | fmoles of Ca2+ channel blocker specifically bound per μg of monoclonal antibody XIIIE82 /H8 [1]: 18.8 fmol/µg

COCCOC(=O)C1=C(C)NC(C)=C(C(=O)OC(C)C)C1c1cccc([N+](=O)[O-])c1 (centres unmarked) [[^3 H]Nimodipine]
ability to bind to monoclonal antibody XIIIE82 /H8-Sepharose 6MB beads (in words) [1]: specifically bind | CPM Bound [1]: 57439 CPM | fmoles of Ca2+ channel blocker specifically bound per μg of monoclonal antibody XIIIE82 /H8 [1]: 20.9 fmol/µg

CCOC(=O)C1=C(C)NC(C)=C(C(=O)OC)C1c1cccc([N+](=O)[O-])c1 (centres unmarked) [[^3 H]Nitrendipine, 2,6-dimethyl-3-carboethoxy-5-carbomethoxy-4-(3-nitrophenyl)-1,4-dihydropyridine]
Kd [5]: 12.5 nM | Kd [6]: 26 nM | ability to bind to monoclonal antibody XIIIE82 /H8-Sepharose 6MB beads (in words) [1]: specifically bind | CPM Bound [1]: 59103 CPM | fmoles of Ca2+ channel blocker specifically bound per μg of monoclonal antibody XIIIE82 /H8 [1]: 33.8 fmol/µg

COc1ccc(CCN(C)CCCC(C#N)(c2ccc(OC)c(OC)c2)C(C)C)cc1OC (centres unmarked) [[^3 H]Verapamil]
ability to bind to monoclonal antibody XIIIE82 /H8-Sepharose 6MB beads (in words) [1]: did not bind | CPM Bound [1]: 234 CPM | fmoles of Ca2+ channel blocker specifically bound per μg of monoclonal antibody XIIIE82 /H8 [1]: 0.2 fmol/µg

COc1ccc([C@@H]2Sc3ccccc3N(CCN(C)C)C(=O)[C@@H]2OC(C)=O)cc1 [diltiazem]
cross-reaction with the antibodies [7]: do not cross-react

COc1ccc(CCN(C)CCCC(C#N)(c2ccc(OC)c(OC)c2)C(C)C)cc1OC (centres unmarked) [verapamil]
cross-reaction with the antibodies [7]: do not cross-react

Keyhole limpet hemocyanin
time to antibody response [8]: 4 weeks | titer of antiserum of 1,4-dihydropyridine-specific antibodies [8]: highest titer

From patent US4784955A, “Immunogen conjugates and the use thereof in a dihydropyridine assay” (Miles Inc., priority 1986, dated 1988)
